# Data: PubChem BioAssay AID228 (DTP/NCI, 2004)
# Values joined by “and” are separate entries in the source; they are usually repeats but may differ in a detail not shown here. Equal values may be shown once. Results filed as inconclusive are left out.
# System: BDF1 mice, Friend leukemia sc, tumor weight T/C
# Assay: NCI In Vivo Anticancer Drug Screen. Data for tumor model Friend Virus Leukemia (Solid) (subcutaneous) in B6D2F1 (BDF1) mice
# Details: endpoint: mean tumor weight, higher = larger tumour
# Protocol: The antitumor activity of compounds was measured in mice bearing transplantable tumors. Survival or tumor size were measured and the results are expressed as the measurement made in the treated group (T) divided by the measurement made in the vehicle treated control group (C). The tumor model used in this assay is Friend Virus Leukemia (Solid) (subcutaneous) in B6D2F1 (BDF1) mice
# [1] = dose: 50.0 mg/kg/injection, schedule: Q01DX011 (ip), vehicle: carboxymethylcellulose (CMC)
# [2] = dose: 15.0 mg/kg/injection, schedule: Q01DX011 (ip), vehicle: carboxymethylcellulose (CMC)
# [3] = dose: 31.0 mg/kg/injection, schedule: Q01DX011 (ip), vehicle: carboxymethylcellulose (CMC)
# [4] = dose: 125.0 mg/kg/injection, schedule: Q01DX011 (ip), vehicle: carboxymethylcellulose (CMC)
# [5] = dose: 250.0 mg/kg/injection, schedule: Q01DX011 (ip), vehicle: carboxymethylcellulose (CMC)
# [6] = dose: 500.0 mg/kg/injection, schedule: Q01DX011 (ip), vehicle: carboxymethylcellulose (CMC)
# [7] = dose: 62.5 mg/kg/injection, schedule: Q01DX011 (ip), vehicle: carboxymethylcellulose (CMC)
# [8] = dose: 5.0 mg/kg/injection, schedule: Q01DX011 (ip), vehicle: carboxymethylcellulose (CMC)
# [9] = dose: 6.0 mg/kg/injection, schedule: Q01DX011 (ip), vehicle: carboxymethylcellulose (CMC)
# [10] = dose: 1.0 mg/kg/injection, schedule: Q01DX011 (ip), vehicle: carboxymethylcellulose (CMC)
# [11] = dose: 0.75 mg/kg/injection, schedule: Q01DX011 (ip), vehicle: saline
# [12] = dose: 1.5 mg/kg/injection, schedule: Q01DX011 (ip), vehicle: saline
# [13] = dose: 19.0 mg/kg/injection, schedule: Q01DX011 (ip), vehicle: carboxymethylcellulose (CMC)
compound,measurement,setting,value
Nc1nc2n[nH]nc2c(=O)[nH]1,T/C,"dose: 11.12 mg/kg/injection, schedule: Q01DX011 (ip), vehicle: carboxymethylcellulose (CMC)",158 % of control
same,T/C,"dose: 11.8 mg/kg/injection, schedule: Q01DX011 (ip), vehicle: other",190 % of control
same,T/C,"dose: 22.7 mg/kg/injection, schedule: Q01DX011 (ip), vehicle: other",189 % of control
same,T/C,"dose: 45.5 mg/kg/injection, schedule: Q01DX011 (ip), vehicle: other",152 % of control
same,T/C,"dose: 89.0 mg/kg/injection, schedule: Q01DX011 (ip), vehicle: carboxymethylcellulose (CMC)",44 % of control
same,T/C,"dose: 89.0 mg/kg/injection, schedule: Q01DX011 (ip), vehicle: other",123 % of control
O=C(O)c1ccc(-c2ccccc2)cc1,T/C,[1],103 % of control
O=[N+]([O-])c1ccccc1CSc1ncnc2nc[nH]c12,T/C,[2],112 % of control
same,T/C,[3],111 % of control
same,T/C,"dose: 62.0 mg/kg/injection, schedule: Q01DX011 (ip), vehicle: carboxymethylcellulose (CMC)",55 % of control and 48 % of control
same,T/C,[4],26 % of control and 48 % of control
same,T/C,[5],7 % of control
same,T/C,[6],2 % of control
Nc1ccc2ccccc2c1N=Nc1ccccc1,T/C,[7],66 % of control
same,T/C,[4],58 % of control
same,T/C,[6],25 % of control and 27 % of control
Nc1ncnc2[nH]ncc12,T/C,"dose: 0.9 mg/kg/injection, schedule: Q01DX011 (ip), vehicle: carboxymethylcellulose (CMC)",108 % of control
same,T/C,"dose: 0.93 mg/kg/injection, schedule: Q01DX011 (ip), vehicle: carboxymethylcellulose (CMC)",74 % of control
same,T/C,"dose: 1.8 mg/kg/injection, schedule: Q01DX011 (ip), vehicle: carboxymethylcellulose (CMC)",157 % of control
same,T/C,"dose: 1.87 mg/kg/injection, schedule: Q01DX011 (ip), vehicle: carboxymethylcellulose (CMC)",90 % of control
same,T/C,"dose: 1.9 mg/kg/injection, schedule: Q01DX011 (ip), vehicle: carboxymethylcellulose (CMC)",124 % of control
same,T/C,"dose: 3.7 mg/kg/injection, schedule: Q01DX011 (ip), vehicle: carboxymethylcellulose (CMC)",57 % of control
same,T/C,"dose: 3.75 mg/kg/injection, schedule: Q01DX011 (ip), vehicle: carboxymethylcellulose (CMC)",50 % of control
same,T/C,"dose: 3.8 mg/kg/injection, schedule: Q01DX011 (ip), vehicle: carboxymethylcellulose (CMC)",88 % of control
same,T/C,[8],29 % of control
same,T/C,[9],40 % of control
same,T/C,"dose: 7.0 mg/kg/injection, schedule: Q01DX011 (ip), vehicle: carboxymethylcellulose (CMC)",28 % of control
CC(Cl)CN(Cc1cc(O)c(CN(CC(C)Cl)CC(C)Cl)cc1O)CC(C)Cl (stereo unspecified),T/C,[7],66 % of control
same,T/C,[4],44 % of control
NC(Cc1ccc(N(CCCl)CCCl)cc1)C(=O)O (stereo unspecified),T/C,"dose: 0.32 mg/kg/injection, schedule: Q01DX011 (ip), vehicle: carboxymethylcellulose (CMC)",101 % of control
same,T/C,"dose: 0.64 mg/kg/injection, schedule: Q01DX011 (ip), vehicle: carboxymethylcellulose (CMC)",87 % of control
same,T/C,[10],65 % of control
same,T/C,"dose: 1.28 mg/kg/injection, schedule: Q01DX011 (ip), vehicle: carboxymethylcellulose (CMC)",101 % of control
same,T/C,"dose: 2.0 mg/kg/injection, schedule: Q01DX011 (ip), vehicle: carboxymethylcellulose (CMC)",60 % of control
same,T/C,"dose: 2.56 mg/kg/injection, schedule: Q01DX011 (ip), vehicle: carboxymethylcellulose (CMC)",70 % of control
same,T/C,"dose: 3.0 mg/kg/injection, schedule: Q01DX011 (ip), vehicle: carboxymethylcellulose (CMC)",57 % of control
same,T/C,"dose: 4.0 mg/kg/injection, schedule: Q01DX011 (ip), vehicle: carboxymethylcellulose (CMC)",32 % of control
same,T/C,[8],36 % of control
same,T/C,[9],13 % of control
same,T/C,"dose: 8.0 mg/kg/injection, schedule: Q01DX011 (ip), vehicle: carboxymethylcellulose (CMC)",7 % of control
Nc1ncnc2c1ncn2C1CCCO1 (stereo unspecified),T/C,[1],111 % of control
same,T/C,"dose: 100.0 mg/kg/injection, schedule: Q01DX011 (ip), vehicle: carboxymethylcellulose (CMC)",54 % of control
CCC(=O)O[C@H]1CC[C@H]2[C@@H]3CC[C@H]4CC(=O)[C@H](C)C[C@]4(C)[C@H]3CC[C@]12C,T/C,"dose: 42.0 mg/kg/injection, schedule: Q01DX011 (sc), vehicle: steriod suspending solution",212 % of control
same,T/C,"dose: 44.1 mg/kg/injection, schedule: Q01DX011 (sc), vehicle: steriod suspending solution",173 % of control
same,T/C,"dose: 83.0 mg/kg/injection, schedule: Q01DX011 (sc), vehicle: steriod suspending solution",227 % of control
same,T/C,"dose: 88.2 mg/kg/injection, schedule: Q01DX011 (sc), vehicle: steriod suspending solution",184 % of control
same,T/C,"dose: 176.0 mg/kg/injection, schedule: Q01DX011 (sc), vehicle: steriod suspending solution",225 % of control
same,T/C,"dose: 353.0 mg/kg/injection, schedule: Q01DX011 (sc), vehicle: steriod suspending solution",168 % of control and 213 % of control
NC(Cc1c[nH]c2ccc(N(CCCl)CCCl)cc12)C(=O)O (stereo unspecified),T/C,[11],37 % of control
same,T/C,[10],120 % of control
same,T/C,[12],47 % of control
same,T/C,"dose: 2.5 micrograms/kg/injection, schedule: Q01DX011 (ip), vehicle: carboxymethylcellulose (CMC)",71 % of control
same,T/C,"dose: 5.0 micrograms/kg/injection, schedule: Q01DX011 (ip), vehicle: carboxymethylcellulose (CMC)",61 % of control
same,T/C,"dose: 11.0 micrograms/kg/injection, schedule: Q01DX011 (ip), vehicle: carboxymethylcellulose (CMC)",86 % of control
same,T/C,"dose: 22.0 micrograms/kg/injection, schedule: Q01DX011 (ip), vehicle: carboxymethylcellulose (CMC)",90 % of control
same,T/C,"dose: 45.0 micrograms/kg/injection, schedule: Q01DX011 (ip), vehicle: carboxymethylcellulose (CMC)",52 % of control
same,T/C,"dose: 90.0 micrograms/kg/injection, schedule: Q01DX011 (ip), vehicle: carboxymethylcellulose (CMC)",34 % of control
same,T/C,"dose: 180.0 micrograms/kg/injection, schedule: Q01DX011 (ip), vehicle: carboxymethylcellulose (CMC)",40 % of control
same,T/C,"dose: 370.0 micrograms/kg/injection, schedule: Q01DX011 (ip), vehicle: carboxymethylcellulose (CMC)",39 % of control
Clc1ccc2c(Cl)ncnc2c1,T/C,[13],96 % of control
same,T/C,"dose: 37.5 mg/kg/injection, schedule: Q01DX011 (ip), vehicle: carboxymethylcellulose (CMC)",59 % of control
same,T/C,"dose: 75.0 mg/kg/injection, schedule: Q01DX011 (ip), vehicle: carboxymethylcellulose (CMC)",31 % of control
O=[N+]([O-])c1ccc(O)c([N+](=O)[O-])c1,T/C,"dose: 3.87 mg/kg/injection, schedule: Q01DX011 (ip), vehicle: carboxymethylcellulose (CMC)",101 % of control
same,T/C,"dose: 6.75 mg/kg/injection, schedule: Q01DX011 (ip), vehicle: carboxymethylcellulose (CMC)",102 % of control
same,T/C,"dose: 13.5 mg/kg/injection, schedule: Q01DX011 (ip), vehicle: carboxymethylcellulose (CMC)",103 % of control
same,T/C,"dose: 27.0 mg/kg/injection, schedule: Q01DX011 (ip), vehicle: carboxymethylcellulose (CMC)",123 % of control
S=P(N1CC1)(N1CC1)N1CC1,T/C,"dose: 0.3 mg/kg/injection, schedule: Q01DX011 (ip), vehicle: carboxymethylcellulose (CMC)",79 % of control
same,T/C,"dose: 0.6 mg/kg/injection, schedule: Q01DX011 (ip), vehicle: carboxymethylcellulose (CMC)",73 % of control
same,T/C,"dose: 0.96 mg/kg/injection, schedule: Q01DX011 (ip), vehicle: carboxymethylcellulose (CMC)",72 % of control
same,T/C,"dose: 1.6 mg/kg/injection, schedule: Q01DX011 (ip), vehicle: carboxymethylcellulose (CMC)",99 % of control
same,T/C,"dose: 2.4 mg/kg/injection, schedule: Q01DX011 (ip), vehicle: carboxymethylcellulose (CMC)",61 % of control and 73 % of control
Nc1nc(F)nc2c1ncn2C1OC(CO)C(O)C1O (stereo unspecified),T/C,"dose: 0.06 mg/kg/injection, schedule: Q01DX011 (ip), vehicle: saline",155 % of control
same,T/C,"dose: 0.12 mg/kg/injection, schedule: Q01DX011 (ip), vehicle: saline",120 % of control
same,T/C,[11],225 % of control
same,T/C,[12],203 % of control
same,T/C,"dose: 3.0 mg/kg/injection, schedule: Q01DX011 (ip), vehicle: saline",199 % of control
c1ccc2c(c1)ccc1cc3c(ccc4ccccc43)cc12,T/C,[2],90 % of control
same,T/C,[3],86 % of control
same,T/C,[7],39 % of control
same,T/C,"dose: 63.0 mg/kg/injection, schedule: Q01DX011 (ip), vehicle: carboxymethylcellulose (CMC)",93 % of control
same,T/C,[5],52 % of control
same,T/C,[6],29 % of control
CCOC(=O)NP(=O)(N1CC1)N1CC1,T/C,"dose: 2.87 mg/kg/injection, schedule: Q01DX011 (ip), vehicle: carboxymethylcellulose (CMC)",78 % of control
same,T/C,"dose: 4.75 mg/kg/injection, schedule: Q01DX011 (ip), vehicle: carboxymethylcellulose (CMC)",77 % of control
same,T/C,"dose: 9.5 mg/kg/injection, schedule: Q01DX011 (ip), vehicle: carboxymethylcellulose (CMC)",36 % of control
same,T/C,[13],5 % of control
